According to patent US20240115557A1, “INHIBITORS OF RNA-GUIDED NUCLEASES AND USES THEREOF” (The Brigham and Women's Hospital, Inc., priority 2022, published 2024):

How the values were obtained:
SpCas9 [1] = target: T1, SpCas9 (Streptococcus pyogenes serotype M1, UniProt Q99ZW2); test: Strand displacement assay (SDA) / cumulative activity assay (CAA), SpCas9 primary screen; assay type: biochemical; conditions: Primary Screen (150 min); for Normalized Z score 1: replicate 1; for Normalized Z score 2: replicate 2
T1 sequence (Q99ZW2 whole entry): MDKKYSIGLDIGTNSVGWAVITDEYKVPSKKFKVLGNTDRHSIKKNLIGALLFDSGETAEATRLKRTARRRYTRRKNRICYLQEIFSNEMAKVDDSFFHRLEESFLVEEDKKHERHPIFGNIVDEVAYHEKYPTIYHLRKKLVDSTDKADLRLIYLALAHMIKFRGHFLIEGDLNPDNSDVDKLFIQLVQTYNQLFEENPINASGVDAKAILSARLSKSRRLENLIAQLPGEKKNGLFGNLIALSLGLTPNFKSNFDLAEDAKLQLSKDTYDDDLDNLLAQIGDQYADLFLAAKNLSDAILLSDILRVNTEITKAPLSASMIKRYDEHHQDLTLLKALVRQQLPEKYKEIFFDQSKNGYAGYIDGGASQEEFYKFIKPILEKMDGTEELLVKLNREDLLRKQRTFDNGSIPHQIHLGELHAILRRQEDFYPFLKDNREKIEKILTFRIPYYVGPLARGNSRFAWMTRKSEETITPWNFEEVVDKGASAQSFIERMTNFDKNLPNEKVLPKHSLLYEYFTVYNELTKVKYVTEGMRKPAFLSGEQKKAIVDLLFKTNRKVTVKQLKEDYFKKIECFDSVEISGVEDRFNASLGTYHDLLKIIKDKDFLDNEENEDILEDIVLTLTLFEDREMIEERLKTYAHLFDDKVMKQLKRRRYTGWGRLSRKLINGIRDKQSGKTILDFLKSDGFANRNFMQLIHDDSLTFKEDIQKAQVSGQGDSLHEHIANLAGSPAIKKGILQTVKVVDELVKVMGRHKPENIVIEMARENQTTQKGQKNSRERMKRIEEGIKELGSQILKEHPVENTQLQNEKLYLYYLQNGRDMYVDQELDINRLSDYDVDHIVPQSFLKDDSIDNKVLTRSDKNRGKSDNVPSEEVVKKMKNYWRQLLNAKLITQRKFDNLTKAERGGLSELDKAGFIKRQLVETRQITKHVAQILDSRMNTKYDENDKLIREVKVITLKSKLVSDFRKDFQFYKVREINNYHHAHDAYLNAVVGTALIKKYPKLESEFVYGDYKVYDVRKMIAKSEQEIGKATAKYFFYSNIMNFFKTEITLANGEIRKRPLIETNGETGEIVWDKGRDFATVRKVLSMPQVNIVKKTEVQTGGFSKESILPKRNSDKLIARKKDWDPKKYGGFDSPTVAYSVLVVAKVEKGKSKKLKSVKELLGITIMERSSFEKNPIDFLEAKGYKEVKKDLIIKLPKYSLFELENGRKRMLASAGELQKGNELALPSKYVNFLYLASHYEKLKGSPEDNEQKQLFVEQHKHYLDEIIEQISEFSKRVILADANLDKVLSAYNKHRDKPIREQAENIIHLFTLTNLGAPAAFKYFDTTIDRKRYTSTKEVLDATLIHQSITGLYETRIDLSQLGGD
Procedure, shortened: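 SpCas9:gRNA RNP in 20 mM Tris-HCl pH 7.5, 100 mM KCl, 5 mM MgCl2 was used at 10 nM (2× stock) with Alexa Fluor 647-labelled substrate and excess quencher strand (1 nM and 5 nM, 2× stocks). Fluorescence was read after 2.5 h at 37 °C, where cleavage lets the quencher strand anneal.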

SpCas9 [2] = target: T1, SpCas9; test: eGFP disruption assay, SpCas9, U2OS.eGFP.PEST cells; assay type: cell-based; conditions: for Z score Rep1 / Normalized Z rep1: replicate 1; for SpCas9 eGFP disruption Rep1: replicate 1, raw readout; for Z socre Rep2 / Normalized Z rep2: replicate 2; for SpCas9 eGFP disruption Rep2: replicate 2, raw readout
Procedure, shortened: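 U2OS.eGFP.PEST cells nucleofected with 300 ng SpCas9 plasmid plus 30 ng eGFP-targeting gRNA plasmid, or with SpCas9 RNP (10 pmol protein, 12 pmol gRNA). Cells then incubated 24 h with compound (20 μM in screening). Inhibition is read as rescue of eGFP fluorescence in paraformaldehyde-fixed, nuclear-stained cells.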

[3] = Cas9 = lower control, Ctrl = upper control
[4] = normalized, lower control about 0, upper control about 1

SMILES	Average Normalized Z score (SpCas9 [1])	avg z score primary (SpCas9 [1])	Normalized Z score 1 (SpCas9 [1])	Normalized Z score 2 (SpCas9 [1])	Z score Rep1 (SpCas9 [2])	SpCas9 eGFP disruption Rep1 (SpCas9 [2]; [3])	Normalized Z rep1 (SpCas9 [2]; [4])	Z socre Rep2 (SpCas9 [2])	SpCas9 eGFP disruption Rep2 (SpCas9 [2]; [3])	Normalized Z rep2 (SpCas9 [2]; [4])	Average Normalized Z score (SpCas9 [1]; average of replicates)	Normalized Z rep1 (SpCas9 [2])	SpCas9 eGFP disruption Rep1 (SpCas9 [2])	Normalized Z rep2 (SpCas9 [2])	SpCas9 eGFP disruption Rep2 (SpCas9 [2])
O=C(NC1CCCCC1)c1cccc(Oc2cc(-c3ccccc3)ncn2)c1 [Compound L663-0999]	0.40	7.77	0.44	0.36	0.55	77.659	0.08	−1.03	74.256	−0.11					
Cc1[nH]nc2ccc(-c3cncc(OCC(N)Cc4ccccc4)c3)cc12 (centres unmarked) [Compound S2670]		3.67	0.17	0.21	−22.46			−33.58			0.19	−3.44	10.416	−3.50	9.7985
CNS(=O)(=O)c1ccc2nc(NC(=O)c3ccc(N4C(=O)CCC4=O)cc3)sc2c1 [Compound G786-1562]	0.06	6.00	0.05	0.07	−2.41			−3.72				−0.26	57.872	−0.25	60.132
COc1ccc(-c2cc3c(C)nc(N)nc3n(C3CCC(OCCO)CC3)c2=O)cn1 (centres unmarked) [Compound S2743]		8.74	0.45	0.44	−4.92			−8.50			0.45	−0.75	61.679	−0.89	59.461
CCn1c(=O)c(C(=O)Nc2nccc(C)n2)c(O)c2ccccc21 [Compound G650-0193]	0.21	11.65	0.19	0.23	−0.45			−6.43				−0.05	63.431	−0.43	55.676
O=C(NC1CCCC1)c1cccc(Oc2cc(-c3ccccc3)ncn2)c1 [Compound L663-1002]	0.27	5.18	0.22	0.31	−1.70			0.05				−0.26	71.095	0.01	76.396
CCC(C)NC(=O)c1cccc(Oc2cc(-c3ccccc3)ncn2)c1 (centres unmarked) [Compound L663-0996]	0.39	7.57	0.43	0.35	−0.21			−3.54				−0.03	75.44	−0.37	69.294
COc1ccc(OC)c(CNC(=O)c2ccc(Oc3ccnc(-c4cccc(F)c4)n3)cc2)c1 [Compound L662-0973]	0.29	5.63	0.35	0.24	0.85	78.528	0.13	1.27	78.814	0.13					
O=C(Nc1ccc(F)c(Cl)c1)c1ccc(Oc2ccnc(-c3ccc(F)cc3)n2)cc1 [Compound L662-0654]	0.30	5.79	0.30	0.29	−0.84			−1.37				−0.13	73.611	−0.14	73.579
Cc1ncc(-c2ccnc(Nc3ccc(S(C)(=O)=O)cc3)n2)n1C(C)C [Compound S2621]		6.88	0.43	0.26	−10.98			−16.40			0.35	−1.68	43.978	−1.71	43.815
Cc1c(P(=S)(N2CCOCC2)N2CCOCC2)cc(C#N)n1C [Compound T0503-9777]		4.67	0.06	0.06	1.11	60.694	0.08	1.28	57.686	0.06	0.06				
CCOC(=O)C1=C(C)NN=C(Nc2cccc(C)c2C)S1 [Compound T0519-6400]		4.54	0.05	0.07	1.96	62.891	0.14	2.42	59.8	0.12	0.06				
CCc1cccc(-n2nnnc2N2CCN(C(=O)Nc3ccc(C)cc3Cl)CC2)c1 [Compound L378-0331]	0.19	5.44	0.16	0.21	−2.70			0.61				−0.41	68.157	0.06	77.513
COc1ccc(CNC(=O)c2ccc(Oc3ccnc(-c4cccc(F)c4)n3)cc2)c(OC)c1 [Compound L662-0987]	0.37	7.18	0.38	0.36	1.06	79.157	0.16	1.78	79.829	0.19					
O=C(NCC1CCCO1)c1ccc(Oc2ccnc(-c3ccc(F)cc3)n2)cc1 (centres unmarked) [Compound L662-0604]	0.35	6.87	0.33	0.38	0.38	77.166	0.06	0.09	76.48	0.01					
O=C(NCc1ccc(F)cc1)c1ccc(Oc2ccnc(-c3cccc(F)c3)n2)cc1 [Compound L662-0977]	0.44	8.64	0.42	0.47	−0.18			−0.72				−0.03	75.519	−0.08	74.871
C=Cc1ccc(CSC2=NS(=O)(=O)c3ccccc3N2)cc1 [Compound K261-1443]	0.16	4.25	0.15	0.17	−1.74			−4.27				−0.17	72.619	−0.19	72.337
